{
  "source": "patent US12220461B2",
  "about": "“Polypeptide-coupled small molecule compound and antiviral application thereof” (Guangzhou Medical University, priority 2023, dated 2025)",
  "system": "Omicron BA5.2 variant of SARS-CoV-2",
  "type": "cell-based",
  "note": "Starred links: 1 amine or outer side, 2 acyl side, 3 side chain; linkers in the order of their positions; H or OH if unused. Non-standard residues stand in square brackets, D forms with d. Residues, ends and D or L forms follow the SMILES beside them. ξ: configuration not given here. *: point of attachment. X1 = Cc1ccc(N[*:1])cc1C(=O)[*:2]; X2 = C[C@@H](N*)c1cccc2ccccc12; ξR = N=C(N)NCCCC(N)C(=O)O; ξL = CC(C)CC(N)C(=O)O; ξS = NC(CO)C(=O)O",
  "data": [
    {"smiles": "Cc1ccc(NC(=O)CNC(=O)CNC(=O)C(CCCNC(=N)N)NC(=O)C(CC(C)C)NC(=O)C(CCCNC(=N)N)NC(=O)C(N)CO)cc1C(=O)N[C@H](C)c1cccc2ccccc12", "note": "(stereo partly shown) [RG-17] (H-[ξS][ξR][ξL][ξR]GG[X1]-X2)", "values": [
      {"measurement": "IC50 for inhibition of replication of the SARS-CoV-2 genome (qPCR)", "value": "lower than GRL0617"}
    ]}
  ]
}
